# Experimental data published in patent US20220386863A1, “SMART CONTACT LENS FOR DIAGNOSIS AND TREATMENT OF DRY EYE SYNDROME” (priority 2020, published 2022).
# Like-named read-outs stand apart in the source and are kept apart here.
# System: anti-VEGF aptamer
# Settings: for change in current on injection of VEGF: FET sensor with anti-VEGF aptamer, PBS base current, FIG. 2A
# Text: Electrodes using a gold thin film and silver nanowires were patterned on a silicon substrate using a photolithography method, and a semi-conductive layer was placed between the electrodes. In this case, silver nanowires were used as a material of the semi-conductive layer. Thereafter, an aptamer (anti-VEGF aptamer) capable of being coupled to a dry eye syndrome biomarker was coupled to the semi-conductive layer.
# Specifically, a silver nanowire channel was immersed in an 3-aminopropyldimethyl-ethoxysilane (APDES)/ethanol solution to introduce an amine group, and the silver nanowire channel was immersed in a sodium carbonate buffer including 1 wt % succinic anhydride to substitute the amine group with a carboxyl group. Then, after the silver nanowire channel is immersed in a phosphate buffered saline (PBS) solution, 1-ethyl-3(3-dimethyl aminopropyl)carbodiimide hydro-chloride (EDC) and sulfa N-hydroxysuccinimide (sulfa-NHS) were added to form an amide group. An aptamer solution was introduced into the channel, into which the amide group was introduced, to couple the channel and the probe. ?
# A VEGF was injected into the sensor in real time to monitor an intensity of a current flowing in the silver nanowire channel.
# Specifically, 200 μL of PBS was dropped onto the FET sensor to set a base current for 30 minutes, and then, a change in current generated by injecting a specific concentration of a VEGF was observed. ?
substance,measurement,setting,value
vascular endothelial growth factor [VEGF],change in current on injection of VEGF,104 pM VEGF injected,no difference in current
same,change in current on injection of VEGF,1.04 nM VEGF injected,large change
same,change in current on injection of VEGF,52 nM VEGF injected,large change
same,"stabilized current after VEGF injection, averaged per section","compared with the initial base current, FIG. 2B",higher than an initial base current
